Measured values taken from patent publication US12577228B2, “Dihydrocyclopenta-isoquinoline-sulfonamide derivatives compounds” (UCB Biopharma SRL, priority 2019, dated 2026).
Counter-ions that a name gives are not always drawn.

Molecular target: T1, IgE-Tb / soluble IgE receptor FcεRIα with a Y131A mutation (Homo sapiens, UniProt P01854, N146Q/N252Q)
T1 construct: fused on or other part: Terbium chelate (LanthaScreen amine-reactive) on IgE-Fc; Alexa Fluor 488 hydrazide on the oxidised glycans of sFcεRIα; Both are labels and no part of the key
Test: in vitro FRET assay: binding of IgE-Tb to receptor FcεRIα-Y131A-AF488 and its inhibition by compounds
Settings: 5 nM IgE-Tb, 25 nM FcεRIα-Y131A-AF488, 2 hours at room temperature; read-out: FRET IC50 range

T1 sequence (P01854 104-427 N146Q/N252Q): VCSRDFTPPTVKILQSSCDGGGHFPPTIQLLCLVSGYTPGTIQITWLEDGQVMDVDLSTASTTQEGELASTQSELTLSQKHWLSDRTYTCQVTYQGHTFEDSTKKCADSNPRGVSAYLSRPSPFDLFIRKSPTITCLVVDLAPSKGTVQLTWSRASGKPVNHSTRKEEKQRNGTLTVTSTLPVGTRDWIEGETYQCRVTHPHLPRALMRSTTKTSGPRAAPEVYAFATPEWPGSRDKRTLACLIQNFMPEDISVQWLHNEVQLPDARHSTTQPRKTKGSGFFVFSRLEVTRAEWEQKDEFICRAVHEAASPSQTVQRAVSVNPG
T1 sequence (P12319 26-201 Y156A partner): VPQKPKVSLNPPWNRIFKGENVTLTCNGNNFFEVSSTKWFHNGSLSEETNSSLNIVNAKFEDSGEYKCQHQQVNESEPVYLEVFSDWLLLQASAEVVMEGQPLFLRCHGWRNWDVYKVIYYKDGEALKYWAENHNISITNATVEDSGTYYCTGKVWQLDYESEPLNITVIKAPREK

Compound | IC50
CC(C)(F)CNS(=O)(=O)c1c2c(cc3cnc(C4CC4)cc13)C[C@@H](NC(=O)c1ccc3c(c1)CN(C(=O)OC(C)(C)C)C3)C2 [Example 136, tert-butyl 5-[[(7R)-3-cyclopropyl-5-[(2-fluoro-2-methylpropyl)sulfamoyl]-7,8-dihydro-6H-cyclopenta[g]isoquinolin-7-yl]carbamoyl]-1,3-dihydroisoindole-2-carboxylate] | 10 to 50 nM
CC(C)CNS(=O)(=O)c1c2c(cc3cnc(C4CC4)cc13)OCO2 [Example 68, 7-cyclopropyl-N-(2-methylpropyl)-[1,3]dioxolo[4,5-g]isoquinoline-9-sulfonamide] | 100 to 2000 nM
CC(C)(F)CNS(=O)(=O)c1c2c(cc3cnc(C4CC4)cc13)C[C@@H](Nc1cncc(Oc3cc[nH]c(=O)c3)c1)C2 [Example 75, (7R)-3-cyclopropyl-N-(2-fluoro-2-methylpropyl)-7-[[5-[(2-oxo-1H-pyridin-4-yl)oxy]pyridin-3-yl]amino]-7,8-dihydro-6H-cyclopenta[g]isoquinoline-5-sulfonamide] | 10 to 50 nM
CC(C)(F)CNS(=O)(=O)c1c2c(cc3cnc(C4CC4)cc13)C[C@@H](Nc1ccc(C(C)(C)O)nc1)C2 [Example 39, (7R)-3-cyclopropyl-N-(2-fluoro-2-methylpropyl)-7-[[6-(2-hydroxypropan-2-yl)pyridin-3-yl]amino]-7,8-dihydro-6H-cyclopenta[g]isoquinoline-5-sulfonamide] | 10 to 50 nM
CC(C)(F)CNS(=O)(=O)c1c2c(cc3cnc(C4CC4)cc13)C[C@@H](Nc1ccc(C3(O)COC3)nc1)C2 [Example 38, (7R)-3-cyclopropyl-N-(2-fluoro-2-methylpropyl)-7-[[6-(3-hydroxyoxetan-3-yl)pyridin-3-yl]amino]-7,8-dihydro-6H-cyclopenta[g]isoquinoline-5-sulfonamide] | 10 to 50 nM
CC(C)(F)CNS(=O)(=O)c1c2c(cc3cnc(C4CC4)cc13)CC(Nc1cccnc1)C2 (stereo not drawn) [Example 86, 3-cyclopropyl-N-(2-fluoro-2-methylpropyl)-7-(pyridin-3-ylamino)-7,8-dihydro-6H-cyclopenta[g]isoquinoline-5-sulfonamide] | 10 to 50 nM
CC(C)(F)CNS(=O)(=O)c1c2c(cc3cnc(C4CC4)cc13)C[C@@H](Nc1cncc3nn(CCO)cc13)C2 [Example 106, (7R)-3-cyclopropyl-N-(2-fluoro-2-methylpropyl)-7-[[2-(2-hydroxyethyl)pyrazolo[3,4-c]pyridin-4-yl]amino]-7,8-dihydro-6H-cyclopenta[g]isoquinoline-5-sulfonamide] | 10 to 50 nM
CC(C)(F)CNS(=O)(=O)c1c2c(cc3cnc(C4CC4)cc13)CC(Nc1nc3ccccc3[nH]1)C2 (stereo not drawn) [Example 20, 7-(1H-benzimidazol-2-ylamino)-3-cyclopropyl-N-(2-fluoro-2-methylpropyl)-7,8-dihydro-6H-cyclopenta[g]isoquinoline-5-sulfonamide] | 10 to 50 nM
CC(C)(F)CNS(=O)(=O)c1c2c(cc3cnc(C4CC4)cc13)CC(c1nc3c(=O)[nH]ccc3[nH]1)C2 (stereo not drawn) [Example 71, 3-cyclopropyl-N-(2-fluoro-2-methylpropyl)-7-(4-oxo-1,5-dihydroimidazo[4,5-c]pyridin-2-yl)-7,8-dihydro-6H-cyclopenta[g]isoquinoline-5-sulfonamide] | 50 to 100 nM
CC(C)(F)CNS(=O)(=O)c1c2c(cc3cnc(C4CC4)cc13)C[C@@H](Nc1cnc(C(=O)O)c3ccccc13)C2 [Example 138, lithium; 4-[[(7R)-3-cyclopropyl-5-[(2-fluoro-2-methyl-propyl)sulfamoyl]-7,8-dihydro-6H-cyclopenta[g]isoquinolin-7-yl]amino]isoquinoline-1-carboxylate] | 50 to 100 nM
CC(C)CNS(=O)(=O)c1c2c(cc3cnc(C4CC4)cc13)C[C@H](Nc1nncn1-c1cccnc1)C2 (single isomer, unassigned) [Example 3, (7R*)-3-cyclopropyl-N-(2-methylpropyl)-7-[(4-pyridin-3-yl-1,2,4-triazol-3-yl)amino]-7,8-dihydro-6H-cyclopenta[g]isoquinoline-5-sulfonamide [* or S]] | 10 to 50 nM
Cn1nccc1C(=O)NC1Cc2cc3cnc(C4CC4)cc3c(S(=O)(=O)NCC(C)(C)F)c2C1 (stereo not drawn) [Example 104, N-[3-cyclopropyl-5-[(2-fluoro-2-methylpropyl)sulfamoyl]-7,8-dihydro-6H-cyclopenta[g]isoquinolin-7-yl]-2-methylpyrazole-3-carboxamide] | 50 to 100 nM
C[S+]([O-])c1ccc(NC2Cc3cc4cnc(C5CC5)cc4c(S(=O)(=O)NCC(C)(C)F)c3C2)cn1 (stereo not drawn) [Example 139, 3-cyclopropyl-N-(2-fluoro-2-methylpropyl)-7-[(6-methylsulfinylpyridin-3-yl)amino]-7,8-dihydro-6H-cyclopenta[g]isoquinoline-5-sulfonamide] | 10 to 50 nM
CCOC(=O)c1nnc(N[C@@H]2Cc3cc4cnc(C5CC5)cc4c(S(=O)(=O)NCC(C)(C)F)c3C2)s1 [Example 64, ethyl 5-[[(7R)-3-cyclopropyl-5-[(2-fluoro-2-methylpropyl)sulfamoyl]-7,8-dihydro-6H-cyclopenta[g]isoquinolin-7-yl]amino]-1,3,4-thiadiazole-2-carboxylate] | 10 to 50 nM
O=C(O)c1ccc(NC2Cc3cc4cnc(C5CC5)cc4c(S(=O)(=O)NC4CC(F)(F)C4)c3C2)cn1 (stereo not drawn) [Example 89, 5-[[3-cyclopropyl-5-[(3,3-difluorocyclobutyl)sulfamoyl]-7,8-dihydro-6H-cyclopenta[g]isoquinolin-7-yl]amino]pyridine-2-carboxylic acid] | 100 to 2000 nM
Cn1cc2c(NC3Cc4cc5cnc(C6CC6)cc5c(S(=O)(=O)NCC5(O)COC5)c4C3)cncc2n1 (stereo not drawn) [Example 14, 3-cyclopropyl-N-[(3-hydroxyoxetan-3-yl)methyl]-7-[(2-methylpyrazolo[3,4-c]pyridin-4-yl)amino]-7,8-dihydro-6H-cyclopenta[g]isoquinoline-5-sulfonamide] | 10 to 50 nM
Cc1ccc(S(=O)(=O)c2cncc(N[C@@H]3Cc4cc5cnc(C6CC6)cc5c(S(=O)(=O)NCC(C)(C)F)c4C3)c2)cn1 [Example 43, (7R)-3-cyclopropyl-N-(2-fluoro-2-methylpropyl)-7-[[5-(6-methylpyridin-3-yl)sulfonylpyridin-3-yl]amino]-7,8-dihydro-6H-cyclopenta[g]isoquinoline-5-sulfonamide] | 10 to 50 nM
CC(C)(F)CNS(=O)(=O)c1c2c(cc3cnc(C4CC4)cc13)CC(Nc1cncc3nccn13)C2 (stereo not drawn) [Example 109, 3-cyclopropyl-N-(2-fluoro-2-methylpropyl)-7-(imidazo[1,2-a]pyrazin-5-ylamino)-7,8-dihydro-6H-cyclopenta[g]isoquinoline-5-sulfonamide] | 10 to 50 nM
CC(C)(F)CNS(=O)(=O)c1c2c(cc3cnc(C4CC4)cc13)CC(Nc1cncc3[nH]ncc13)C2 (stereo not drawn) [Example 83, 3-cyclopropyl-N-(2-fluoro-2-methyl-propyl)-7-(1H-pyrazolo[3,4-c]pyridin-4-ylamino)-7,8-dihydro-6H-cyclopenta[g]isoquinoline-5-sulfonamide, formate salt] | 10 to 50 nM
CC(C)(F)CNS(=O)(=O)c1c2c(cc3cnc(C4CC4)cc13)C[C@@H](Nc1ccc(S(N)(=O)=O)nc1)C2 [Example 61, (7R)-3-cyclopropyl-N-(2-fluoro-2-methylpropyl)-7-[(6-sulfamoylpyridin-3-yl)amino]-7,8-dihydro-6H-cyclopenta[g]isoquinoline-5-sulfonamide] | 10 to 50 nM
CC(C)CNS(=O)(=O)c1c2c(cc3cnc(C4CC4)cc13)CC1(c3ncc(-c4cccnc4)[nH]3)CC21 (stereo not drawn) [Example 2, 13-cyclopropyl-˜{N}-(2-methylpropyl)-6-(5-pyridin-3-yl-1˜{H}-imidazol-2-yl)-12-azatetracyclo[8.4.0.0^{3,8}.0^{4,6}]tetradeca-1,3 (8),9,11,13-pentaene-2-sulfonamide] | 10 to 50 nM
CC(C)(F)CNS(=O)(=O)c1c2c(cc3cnc(C4CC4)cc13)CC(NC1=CC(=O)C1(C)C)C2 (stereo not drawn) [Example 98, 3-cyclopropyl-7-[(4,4-dimethyl-3-oxocyclobuten-1-yl)amino]-N-(2-fluoro-2-methylpropyl)-7,8-dihydro-6H-cyclopenta[g]isoquinoline-5-sulfonamide] | 100 to 2000 nM
CC(=O)c1ccc(N[C@@H]2Cc3cc4cnc(C5CC5)cc4c(S(=O)(=O)NCC(C)(C)F)c3C2)cc1 [Example 114, (7R)-7-(4-acetylanilino)-3-cyclopropyl-N-(2-fluoro-2-methylpropyl)-7,8-dihydro-6H-cyclopenta[g]isoquinoline-5-sulfonamide] | 50 to 100 nM
CC(C)(F)CNS(=O)(=O)c1c2c(cc3cnc(C4CC4)cc13)CC(c1ccno1)C2 (stereo not drawn) [Example 79, 3-cyclopropyl-N-(2-fluoro-2-methylpropyl)-7-(1,2-oxazol-5-yl)-7,8-dihydro-6H-cyclopenta[g]isoquinoline-5-sulfonamide] | 100 to 2000 nM
CC(C)(F)CNS(=O)(=O)c1c2c(cc3cnc(C4CC4)cc13)CC(Nc1ccc(N3CC(C)(O)C3)nc1)C2 (stereo not drawn) [Example 27, 3-cyclopropyl-N-(2-fluoro-2-methylpropyl)-7-[[6-(3-hydroxy-3-methylazetidin-1-yl)pyridin-3-yl]amino]-7,8-dihydro-6H-cyclopenta[g]isoquinoline-5-sulfonamide] | 100 to 2000 nM
CC(C)CNS(=O)(=O)c1c2c(cc3cnc(C4CC4)cc13)CC(NS(C)(=O)=O)C2 (stereo not drawn) [Example 55, 3-cyclopropyl-7-(methanesulfonamido)-N-(2-methylpropyl)-7,8-dihydro-6H-cyclopenta[g]isoquinoline-5-sulfonamide] | 50 to 100 nM
COc1ccc2c(C(=O)N[C@@H]3Cc4cc5cnc(C6CC6)cc5c(S(=O)(=O)NCC(C)(C)F)c4C3)c[nH]c2c1 [Example 133, N-[(7R)-3-cyclopropyl-5-[(2-fluoro-2-methylpropyl)sulfamoyl]-7,8-dihydro-6H-cyclopenta[g]isoquinolin-7-yl]-6-methoxy-1H-indole-3-carboxamide] | 10 to 50 nM
